{"source": "patent US20040006236A1", "about": "“Diaminopropionic acid derivatives” (priority 1999, published 2004)", "key": {"[1]": {"target": "T1, LFA-1 binding to immobilized ICAM-1 (Homo sapiens, UniProt P05107+P20701)", "T1 construct": "made in house; host or cells: transfected 293 cells (LFA-1)", "T1 sequence (P20701 26-1170)": "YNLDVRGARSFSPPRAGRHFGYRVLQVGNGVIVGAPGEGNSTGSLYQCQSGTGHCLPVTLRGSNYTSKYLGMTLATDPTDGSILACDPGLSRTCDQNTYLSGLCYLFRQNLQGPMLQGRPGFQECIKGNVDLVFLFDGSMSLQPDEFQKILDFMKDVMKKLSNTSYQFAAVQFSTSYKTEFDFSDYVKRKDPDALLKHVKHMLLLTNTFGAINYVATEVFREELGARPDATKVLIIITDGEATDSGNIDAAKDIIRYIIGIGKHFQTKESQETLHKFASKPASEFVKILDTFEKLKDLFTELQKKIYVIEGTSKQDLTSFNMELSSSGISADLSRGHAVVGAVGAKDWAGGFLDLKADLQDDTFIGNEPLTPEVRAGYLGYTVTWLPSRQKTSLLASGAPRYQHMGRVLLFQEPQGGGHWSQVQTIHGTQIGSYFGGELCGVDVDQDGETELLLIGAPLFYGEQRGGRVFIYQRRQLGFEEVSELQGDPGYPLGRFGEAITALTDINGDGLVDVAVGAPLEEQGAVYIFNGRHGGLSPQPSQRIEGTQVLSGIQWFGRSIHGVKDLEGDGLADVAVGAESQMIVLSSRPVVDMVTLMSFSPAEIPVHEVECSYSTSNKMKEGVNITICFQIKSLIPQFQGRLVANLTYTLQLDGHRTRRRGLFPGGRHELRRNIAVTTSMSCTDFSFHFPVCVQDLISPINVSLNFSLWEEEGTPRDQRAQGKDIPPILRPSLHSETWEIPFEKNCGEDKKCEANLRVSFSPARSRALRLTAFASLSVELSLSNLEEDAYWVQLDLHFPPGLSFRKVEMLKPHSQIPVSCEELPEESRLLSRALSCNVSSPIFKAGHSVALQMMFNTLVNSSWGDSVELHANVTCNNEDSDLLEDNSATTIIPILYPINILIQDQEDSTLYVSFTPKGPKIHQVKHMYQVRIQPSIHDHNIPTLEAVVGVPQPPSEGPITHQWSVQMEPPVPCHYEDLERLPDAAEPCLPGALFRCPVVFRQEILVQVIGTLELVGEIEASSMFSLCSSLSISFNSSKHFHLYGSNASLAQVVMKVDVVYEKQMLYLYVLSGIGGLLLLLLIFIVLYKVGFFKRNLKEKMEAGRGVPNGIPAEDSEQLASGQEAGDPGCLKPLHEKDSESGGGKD", "T1 sequence (P05107 23-769)": "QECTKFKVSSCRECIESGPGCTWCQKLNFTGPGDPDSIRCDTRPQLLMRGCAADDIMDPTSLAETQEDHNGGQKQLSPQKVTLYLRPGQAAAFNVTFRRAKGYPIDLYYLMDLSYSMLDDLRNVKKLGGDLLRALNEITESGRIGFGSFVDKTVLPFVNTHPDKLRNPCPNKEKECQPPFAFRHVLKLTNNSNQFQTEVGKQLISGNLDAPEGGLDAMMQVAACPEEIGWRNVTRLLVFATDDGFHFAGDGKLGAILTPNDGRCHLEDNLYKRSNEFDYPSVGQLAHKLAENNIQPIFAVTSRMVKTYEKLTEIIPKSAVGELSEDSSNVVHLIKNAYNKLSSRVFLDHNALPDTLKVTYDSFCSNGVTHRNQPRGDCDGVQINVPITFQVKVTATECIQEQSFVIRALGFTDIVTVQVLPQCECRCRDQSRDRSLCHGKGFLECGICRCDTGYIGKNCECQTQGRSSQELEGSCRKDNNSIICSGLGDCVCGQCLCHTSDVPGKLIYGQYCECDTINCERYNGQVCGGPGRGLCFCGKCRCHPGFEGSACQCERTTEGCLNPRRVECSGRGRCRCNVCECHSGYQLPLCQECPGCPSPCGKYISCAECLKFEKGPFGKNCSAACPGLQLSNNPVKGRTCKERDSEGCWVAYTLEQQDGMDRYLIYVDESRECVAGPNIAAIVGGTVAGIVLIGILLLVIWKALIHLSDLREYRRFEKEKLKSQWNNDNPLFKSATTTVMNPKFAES", "assay": "LFA-1/ICAM-1 protein-protein assay (solid-phase ELISA)", "details": "read-out: LFA-1/ICAM-1 Protein-Protein Assay IC50", "outline": "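Human 5dICAM-Ig (ICAM-1 extracellular domain–IgG Fc) coated on plates; membrane-bound LFA-1 from transfected 293 cells (280 ng/mL) added with compound in Mn2+-containing HEPES buffer pH 7.2, 2 h at 37° C. Bound LFA-1 detected via anti-β2 antibody and HRP/TMB at 450 nm; IC50s determined.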"}, "[2]": {"test_system": "cell-surface Mac-1 adhesion to immobilized fibrinogen (HL-60 cells)", "assay": "Mac-1/Fibrinogen cell-based screening assay", "set-up": "species or system human", "details": "Homo sapiens, HL-60, HL-60 cells; read-out: Mac-1/Fgn Cell based Assay IC50", "outline": "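Wells coated with fibrinogen and blocked with PVP. Labeled HL-60 cells (2×10^6 cells/mL in RPMI/0.05% BSA/0.2 mM MnCl2) preincubated with DMSO-diluted compounds for 10 min at 37° C, then left to adhere 30 min at 37° C/5% CO2. Unbound cells washed off with TBS.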"}}, "data": [{"smiles": "O=C(CC1CCCC1)NC[C@H](NC(=O)c1ccc(C(=O)NCc2cccc(O)c2)cc1Cl)C(=O)O", "note": "[Example 77]", "values": [{"measurement": "IC50", "setting": "[1]", "value": 2.1, "unit": "nM"}, {"measurement": "IC50", "setting": "[2]", "value": 312, "unit": "nM"}]}]}
